These results are taken from ChEMBL document CHEMBL1201862, “PubChem BioAssay data set” (2004).

Holding throughout (experiment): NCI tumour cell line growth inhibition, 48 h
In experiment [1] the test system is ACHN.
Experiment [2] has as its system BT-549.
In experiment [3] the test system is COLO 205.
In experiment [4] the test system is DU-145.
Experiment [5] has as its system HCT-116.
Experiment [6] has as its system HOP-62.
Experiment [7] deals with K562.
In experiment [8] the test system is KM12.
Experiment [9] deals with MDA-N.
Experiment [10] deals with MOLT-4.
The test system of experiment [11] is NCI-H522.
Experiment [12] relates to OVCAR-3.
For experiment [13], the system named is RXF 393.
Experiment [14] concerns SF-539.
The subject of experiment [15] is SK-OV-3.
Experiment [16] concerns SNB-75.
Experiment [17] relates to UACC-257.
Experiment [18] relates to Hs-578T.
Experiment [19] concerns SK-MEL-5.

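Following 48 hours of exposure in 96-well plates, responses at five concentrations were used to interpolate endpoints linearly. GI50 is the concentration that inhibits growth by half.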 The source made the active and inactive calls. Rule as the data show it: active = GI50 up to about 1.1 µM and inactive = higher.

In the case of `O=C1c2ccccc2-c2nc3ccncc3n21`, the GI50 in experiment [1] was > 100 µM (inactive); in experiment [2] it was > 100 µM (inactive); in [3], > 100 µM (inactive); in experiment [4], 51.5 µM (inactive); in experiment [5], 30.5 µM (inactive); in experiment [6], > 100 µM (inactive). For the same molecule, the GI50 in experiment [7] was > 100 µM (inactive); in [8], > 100 µM (inactive); in experiment [9] it was 31.1 µM (inactive); in experiment [10], > 100 µM (inactive); in experiment [11], > 100 µM (inactive); in experiment [12] it was > 100 µM (inactive). Moreover, the GI50 in experiment [13], in experiment [14], in experiment [15], in experiment [16] and in [17] was > 100 µM (inactive) in each case.

With `O=C(c1ccc(-c2ccccc2)cc1)N(Cc1cccnc1)C(=S)N(Cc1cccnc1)C(=O)c1ccc(-c2ccccc2)cc1`, the GI50 is > 100 µM (inactive) in experiment [1]; 55 µM (inactive) in experiment [2]; > 100 µM (inactive) in experiment [3]; > 100 µM (inactive) in [4]; 63.8 µM (inactive) in experiment [5]; > 100 µM (inactive) in experiment [6]. The GI50 in experiment [18] is > 100 µM (inactive); in experiment [7], 0.394 µM (active); in experiment [8] it was 56.6 µM (inactive); in [9], 43.5 µM (inactive); in [10], 0.198 µM (active); in experiment [11] it was > 100 µM (inactive). For the same molecule, the GI50 in experiment [12] is > 100 µM (inactive); in [14], > 100 µM (inactive); in experiment [19], 56 µM (inactive); in experiment [15] it was > 100 µM (inactive); in experiment [17] it was > 100 µM (inactive).

As to `COc1ccc2c(c1)C(=O)[C@@](Nc1ccc(C=O)cc1)(OC)[C@@](OC)(c1ccc([N+](=O)[O-])cc1)O2`, the GI50 in experiment [1], in experiment [2], in experiment [3], in experiment [4], in [5] and in [6] was > 10 µM (inactive) throughout. Besides, the GI50 in [18], in experiment [7], in experiment [8], in [9], in [10] and in experiment [12] was > 10 µM (inactive) throughout. For the same molecule, the GI50 in experiment [13] is > 10 µM (inactive); in experiment [14], > 10 µM (inactive); in experiment [19], > 10 µM (inactive); in experiment [15], > 10 µM (inactive); in [16] it was 3.91 µM (inactive); in [17], > 10 µM (inactive).

For `C=CCOc1ccc(C2C(C(=O)OC)C(=O)CC(O)(c3ccccc3)C2C(=O)OC)cc1OC` (stereo unspecified), the GI50 was 38.1 µM (inactive) in [1]; 30.6 µM (inactive) in [2]; 63.1 µM (inactive) in experiment [3]; 51.6 µM (inactive) in [4]; 20 µM (inactive) in [5]; 42.4 µM (inactive) in experiment [6]. In addition, the GI50 is 51.2 µM (inactive) in experiment [7]; 23.5 µM (inactive) in experiment [8]; 58.9 µM (inactive) in experiment [9]; 27.5 µM (inactive) in experiment [10]; 22.4 µM (inactive) in [11]; 45.6 µM (inactive) in experiment [12]. Further, the GI50 in experiment [13] was 15.9 µM (inactive); in experiment [19] it was 35.3 µM (inactive); in experiment [16] it was 26.9 µM (inactive); in experiment [17], 58.1 µM (inactive).

As for `C1=C(CC2=C[P+](c3ccccc3)(c3ccccc3)C=C(c3ccccc3)O2)OC(c2ccccc2)=C[P+]1(c1ccccc1)c1ccccc1`, the GI50 in [1] was 0.644 µM (active); in experiment [2] it was 0.097 µM (active); in [3], 0.162 µM (active); in experiment [4], 0.482 µM (active); in experiment [5], 0.332 µM (active); in experiment [6], 0.597 µM (active). Further, the GI50 was 0.241 µM (active) in [18]; 0.325 µM (active) in experiment [8]; 0.337 µM (active) in experiment [9]; 0.489 µM (active) in [10]; 0.32 µM (active) in [12]; 0.362 µM (active) in experiment [14]. The GI50 in [19] was 0.293 µM (active); in [15], 0.367 µM (active); in experiment [16], 0.291 µM (active); in experiment [17], 0.352 µM (active).

Turning to `N#CC1(C#N)NC(c2cccnc2)C(C#N)(C#N)NC1c1cccnc1` (stereo unspecified), the GI50 in [2], in experiment [3], in experiment [4], in [5], in experiment [6] and in experiment [7] was > 100 µM (inactive) in each case. The GI50 was > 100 µM (inactive) in experiment [8]; > 100 µM (inactive) in [9]; > 100 µM (inactive) in experiment [10]; > 100 µM (inactive) in experiment [12]; 28.1 µM (inactive) in experiment [13]; > 100 µM (inactive) in experiment [14]. For the same molecule, the GI50 in [19] is > 100 µM (inactive); in experiment [15] it was > 100 µM (inactive); in experiment [16], 47.9 µM (inactive); in [17] it was > 100 µM (inactive).

Turning to `C/C(=N\NC(=S)N/N=C(\C)c1ccccn1)c1ccccn1`, the GI50 in experiment [1] is 1.27 µM (inactive); in experiment [2], 5.22 µM (inactive); in [3], 3 µM (inactive); in experiment [4], 3.62 µM (inactive); in experiment [5] it was 1.84 µM (inactive); in experiment [6], 1.05 µM (active). Moreover, the GI50 is 31.8 µM (inactive) in experiment [18]; 1.92 µM (inactive) in [7]; 1.28 µM (inactive) in [8]; 5.4 µM (inactive) in [9]; 1.31 µM (inactive) in [10]; 6.49 µM (inactive) in experiment [11]. For the same molecule, the GI50 in [12] was 0.656 µM (active); in experiment [14], 0.979 µM (active); in experiment [19], 4.61 µM (inactive); in [15], 1.31 µM (inactive); in [16], 5.93 µM (inactive); in experiment [17], 4.09 µM (inactive).

As to `CCC(=O)O[C@H]1CC[C@H]2[C@@H]3CCC4=C/C(=N/OC(=O)c5cccc6c(=O)c7ccccc7[nH]c56)CC[C@]4(C)[C@H]3CC[C@]12C`, the GI50 in [1] was 47.9 µM (inactive); in [2], 25.3 µM (inactive); in experiment [3], 32.3 µM (inactive); in [6] it was 32.1 µM (inactive); in experiment [18], 22.4 µM (inactive); in experiment [7], 18 µM (inactive). Moreover, the GI50 is 22.9 µM (inactive) in [8]; 35 µM (inactive) in [9]; 17.9 µM (inactive) in experiment [10]; 18.6 µM (inactive) in experiment [11]; 18.3 µM (inactive) in experiment [12]; 22.5 µM (inactive) in experiment [13]. Moreover, the GI50 in [14] is 20.6 µM (inactive); in [19], 22.8 µM (inactive); in experiment [15] it was > 100 µM (inactive); in experiment [16], 54.6 µM (inactive); in [17] it was 38.1 µM (inactive).

With `COc1ccc(C2Oc3ccc(Cl)cc3C=C2[N+](=O)[O-])cc1` (stereo unspecified), the GI50 in experiment [1], in [2], in experiment [3], in experiment [4], in experiment [5] and in [6] was > 100 µM (inactive) each time. Besides, the GI50 in [18], in experiment [7], in experiment [8], in [9], in experiment [10] and in experiment [11] was > 100 µM (inactive) each time. The GI50 in experiment [12], in experiment [13], in [19], in [15] and in experiment [17] was > 100 µM (inactive) in each case.

Consider `COc1ccc(/C=c2\c(=O)[nH]c3nc4ccccc4c(=O)n23)cc1`, for which the GI50 was > 100 µM (inactive) in [1]; 27.3 µM (inactive) in experiment [2]; 60.8 µM (inactive) in [3]; 61.2 µM (inactive) in experiment [4]; 70 µM (inactive) in [5]; > 100 µM (inactive) in experiment [6]. In addition, the GI50 is > 100 µM (inactive) in experiment [18]; 73.5 µM (inactive) in experiment [8]; 56.5 µM (inactive) in experiment [10]; 37.3 µM (inactive) in experiment [11]; 81.5 µM (inactive) in experiment [12]; 46.1 µM (inactive) in [13]. In addition, the GI50 in experiment [14] was 46.5 µM (inactive); in experiment [19], 73.6 µM (inactive); in [15], > 100 µM (inactive); in experiment [16] it was 32.5 µM (inactive); in experiment [17], 88.9 µM (inactive).

With `CN(CCCNC(=O)c1cn(C)c2c1Cc1ccccc1-2)CCCNC(=O)c1cn(C)c2c1Cc1ccccc1-2`, the GI50 in experiment [1] was 10.5 µM (inactive); in [2], 17.1 µM (inactive); in experiment [3], 1.9 µM (inactive); in [5], 9.33 µM (inactive); in experiment [6] it was 12.9 µM (inactive); in experiment [18], 5.85 µM (inactive). The GI50 is 2.78 µM (inactive) in [7]; 13 µM (inactive) in experiment [8]; 3.58 µM (inactive) in experiment [9]; 3.35 µM (inactive) in experiment [10]; 15.6 µM (inactive) in experiment [12]; 16.8 µM (inactive) in experiment [13]. The GI50 is 13.8 µM (inactive) in experiment [14], 14.2 µM (inactive) in [19], 16.5 µM (inactive) in [15] and 6.12 µM (inactive) in [17].

Regarding `Cc1cc2c(-c3ccccc3)cc(=O)[nH]c2cc1N`, the GI50 in [1], in [2], in experiment [3], in [4], in experiment [5] and in [6] was > 100 µM (inactive) throughout. In addition, the GI50 in experiment [7], in experiment [8], in experiment [9], in experiment [10], in experiment [12] and in experiment [13] was > 100 µM (inactive) each time. Moreover, the GI50 in [14], in experiment [19], in experiment [16] and in [17] was > 100 µM (inactive) each time.
